Test system: tonic hind limb extensor convulsions (mouse model of generalised seizure)
Experiment: mini-MEST (maximal electroshock seizure threshold) test in the mouse
Conditions: for change in vivo at 50 mg/kg / change in vivo at 5 mg/kg: Mus musculus, ip, change in CC50; for change in vivo at 50 mg/kg: 0.5 h, read-out: % change from vehicle, 50 mg/kg i.p., 30 min post dose; for change in vivo at 5 mg/kg: 0.25 h, read-out: % change from vehicle, 5 mg/kg i.p., 15 min post dose
Procedure: The efficacy of novel resorcinols 2, 3, 5, 8, 10, 15, 16, 17, 18, 19, 41 45, 46, 53, 56 and 58 were tested in a novel mouse model of generalised seizure, the mini-MEST (maximal electroshock seizure threshold) test, which uses lower n numbers than typically used.
The maximal electroshock seizure threshold (MEST) test is widely utilized preclinically to evaluate pro- or anti-convulsant properties of test compounds (Loscher et al., 1991).
In the MEST test the ability of a drug to alter the seizure threshold current required to induce hind limb tonic extensor convulsions is measured according to an “up and down” method of shock titration (Kimball et al., 1957). An increase in seizure threshold is indicative of anti-convulsant effect.
The ability of a test compound to alter the stimulus intensity, expressed as current (mA), required to induce the presence of tonic hind limb extensor convulsions, is assessed in the MEST.
Naïve mice were acclimatised to the procedure room in their home cages for up to 7 days, with food and water available ad libitum.
All animals were weighed at the beginning of the study and randomly assigned to treatment groups based on a mean distribution of body weight across groups.
The first animal within a treatment group was given a shock at the expected or estimated CC50 current. For subsequent animals, the current was lowered or raised depending on the convulsions outcome from the preceding animal in log scale intervals.
Data generated from each treatment group were used to calculate the CC50±SEM values for the treatment group.
Vehicle: (5% ethanol, 10% solutol in 85% Saline) was prepared as follows: 1 mL of ethanol, 2 mL of solutol were warmed to 60° C., in 17 mL of saline (1:2:17).
The test compounds used were 2, 3, 5, 8, 10, 15, 16, 17, 18, 19, 41, 45, 46, 53, 56 and 58 Test compounds were administered at 5-50 mg/kg (i.p.) in a 1:2:17 ethanol:solutol:saline formulation.
Test compound effects were also calculated as percentage change in CC50 from the vehicle control group.
Significant difference between drug-treated animals and controls were assessed according to Litchfield and Wilcoxon (1949).

[1] = 50 mg/kg i.p., test 30 min post dose
[2] = 5 mg/kg i.p., test 15 min post dose

Row | SMILES | CC50 +/− SEM [1] | change in vivo at 50 mg/kg | CC50 +/− SEM [2] | change in vivo at 5 mg/kg
1 | C=C(C)[C@@H]1C[C@H](O)C(C)=C[C@H]1c1c(O)cc(-c2cccc(OC)c2)c(Cl)c1O [Compound 49, (1R,2R,4S)-3′-Chloro-3″-methoxy-5-methyl-2-(prop-1-en-2-yl)-1,2,3,4-tetrahydro-[1,1′:4′,1″-terphenyl]-2′,4,6′-triol] | 97.5 ± 1.3 mA | 244% |  | 
2 | C=C(C)[C@@H]1C[C@H](O)C(C)=C[C@H]1c1c(O)cc(-c2cccnc2OC)cc1O [Compound 35, (1′R,2′R,4′S)-4-(2-Methoxypyridin-3-yl)-5′-methyl-2′-(prop-1-en-2-yl)-1′,2′,3′,4′-tetrahydro-[1,1′-biphenyl]-2,4′,6-triol] | >131.0 mA | 457% | 38.0 ± 1.9 mA | 62%
3 | C=C(C)[C@@H]1C[C@H](O)C(C)=C[C@H]1c1c(O)cc(CCC)c(Cl)c1O [Compound 46, (1′R,2′R,4′S)-3-chloro-5′-methyl-2′-(prop-1-en-2-yl)-4-propyl-1′,2′,3′,4′-tetrahydro-[1,1′-biphenyl]-2,4′,6-triol] | 84.0 ± 3.4 mA | 217% |  | 
4 | C=C(C)[C@@H]1C[C@H](O)C(C)=C[C@H]1c1c(O)cc(-c2cccc3c2OCO3)cc1O [Compound 42, (1′R,2′R,4′S)-4-(Benzo[d][1,3]dioxol-4-yl)-5′-methyl-2′-(prop-1-en-2-yl)-1′,2′,3′,4′-tetrahydro-[1,1′-biphenyl]-2,4′,6-triol] | >131.0 mA | 457% |  | 
5 | C=C(C)[C@@H]1C[C@H](O)C(C)=C[C@H]1c1c(O)cc(-c2ccnc(C(F)(F)F)c2)cc1O [Compound 58, (1′R,2′R,4′S)-5′-Methyl-2′-(prop-1-en-2-yl)-4-(2-(trifluoromethyl)pyridin-4-yl)-1′,2′,3′,4′-tetrahydro-[1,1′-biphenyl]-2,4′,6-triol] | 88.5 ± 1.3 mA | 234% |  | 
6 | C=C(C)[C@@H]1C[C@H](O)C(C)=C[C@H]1c1c(O)cc(C2=CCOCC2)cc1O [Compound 26, (1′R,2′R,4′S)-4-(3,6-Dihydro-2H-pyran-4-yl)-5′-methyl-2′-(prop-1-en-2-yl)-1′,2″,3′,4′-tetrahydro-[1,1′-biphenyl]-2,4′,6-triol] | 50.0 ± 2.6 mA | 100% | 31.0 ± 0.2 mA | 24%

From patent US20240254066A1, “RESCORCINOLS, METHODS FOR THEIR MANUFACTURE, AND USES THEREOF” (GW Research Limited, priority 2021, published 2024)
